Source: patent US7763439B2, “Two-photon absorbing dipyrrometheneboron difluoride dyes and their applications” (Arctic Diagnostics Oy, priority 2001, dated 2010)

Columns and labels:
[1] = Two-photon fluorescence yields of dyes in solution, laser with high two-photon excitation efficiency; assay type: physicochemical; conditions: 100 nM dye in ethanol (R-PE in PBS pH 7.4); 1064 nm Nd:YAG microchip laser; normalised to Rhodamine B (100)
Excerpt: (§1) FIG. 1 is a plot of two-photon excitations vs. illumination intensity. At low illumination intensities (A) excitation follows a quadratic dependence of the illumination intensity. In order to maximise the two-photon excited fluorescence a dye should be excited close to saturation level (B). At saturation level (C) almost all of the dye molecules become excited. FIG. 2a present alkyl substituted dipyrrometheneboron difluoride dyes described in examples 1-3 as compounds 1-3. FIGS. 2b and 2c present heteroaryl substituted dipyrrometheneboron difluoride dyes described in examples 4-9 as compounds 4-9. X^+ is a cationic counterion. FIG. 2d presents phenyl substituted dipyrrometheneboron difluoride dyes described in examples 10 and 11 as compounds 10 and 11. X^+ is a cationic counterion. FIGS. 2e and 2f present phenylethenyl substituted dipyrromethene-boron difluoride dyes described in examples 12 and 13 as compounds 12 and 13. X^+ is a cationic counterion. FIGS. 2g and 2h present thienyl substituted dipyrrometheneboron difluoride dyes with amino-, arylamino-, maleimide- and isothiocyanate reactive groups described in examples 14-17 as compounds 14-17. X^+ is a cationic counterion. FIG. 3 presents a linker compound 18 that is used to increase solubility of the dyes in aqueous solutions. X^+ is a cationic counter-ion. FIG. 4 is a plot of two-photon fluorescence signal vs. analyte (AFP) concentration in an immunoassay based on two-photon fluorescence as described in example 21. The AFP concentration 0 ng/ml is presented as a concentration of 0.1 ng/ml because of the logarithmic scale used in FIG. 4. FIG. 5 is an optical scheme of the instrument used in two-photon fluorescence measurements. A passively Q-switched Nd:YAG microchip laser 1 is used as an illumination source for two-photon excited fluorescence. The wavelength of the laser is 1064 nm, the pulse duration is 1 ns and the repetition rate is 20 kHz. The naturally diverging laser light beam is directed with a dichroich mirror 2 through an optical scanner unit 3 to the entrance aperture of the objective lens 4. The illumination at the entrance aperture is gaussian filling about 70% of the full aperture. The objective lens then focuses the illumination light into a special cuvette 5 that has a thin optical bottom (thickness 0.2 mm). The average optical output power reaching the sample is 50 mW. The size of the focal volume is about 1 femtoliter. The two-photon excited fluorescence signal in the range 540-700 nm is collected from the full aperture of the objective lens 4 and directed through the dichroich mirror 2 and the band pass filter 6 to the photomultiplier tube 7. In case of particle measurements, both the two-photon excited fluorescence light and the microparticle back-scattered (reflected) laser light are measured. The dichroich mirror 2 and the 2% beam splitting window 8 deflect the back-scattered light to the pinhole 9 making the detection of the scattering signal confocal. The detector for the scattering signal is a near infrared GaAs pin photodiode 10. The particles are continuously tracked by using a three-dimensional beam scanner 3. The xy-scanner is optomechanical and is positioned as close to the entrance aperture of the objective lens as possible. […] Optical pressure caused by the illuminating laser beam traps the particle and guides it through the centre of laser beam focus. The fluorescence signal is measured while the particle is in focus i.e. the back scattering signal exceeds the preset threshold. In addition to xy-scanning a further z-scanning movement is performed by moving the objective slowly in the axial direction. The amplitude of this movement is 150 μm and the movement is not stopped for particle measurement. Despite of slow z-scanning the particle remains in the focus on basis of optical trapping forces.
The two-photon fluorescence yields were measured using experimental apparatus shown schematically in FIG. 5. […]

[2] = Single pulse effect: z-response, 20% to 80% fluorescence intensity distance in dye solution; assay type: physicochemical; conditions: dye solution between two microscope slides; two-photon excitation
Excerpt: as §1
The direct measurement of quenching by single pulse effect is difficult. […]

Compound | Normalised two-photon fluorescence yield [1] | 20% to 80% fluorescence intensity distance values [2]
4,4-difluoro-1,3,5,7-tetramethyl-6-carboxyethyl-4-bora-3a,4a-diaza-s-indacene-2-propionic acid succinimidylester [Compound 3] | 18 a.u. | 11.5 a.u.
O=C(O)CCC1=[N+]2C(=Cc3c(-c4ccccc4)cc(-c4ccccc4)n3[B-]2(F)F)C=C1 [BODIPY 530/550] | 66 a.u. | 12.2 a.u.
O=C(O)CCC1=[N+]2C(=Cc3ccc(-c4cccs4)n3[B-]2(F)F)C=C1 [BODIPY 558/568] | 101 a.u. | 13.7 a.u.
CCN(CC)c1ccc2c(-c3ccccc3C(=O)O)c3ccc(=[N+](CC)CC)cc-3oc2c1.[Cl-] [Rhodamine B] | 100 a.u. | 16.5 a.u.
Glu-Tau-succinimide derivative of 4,4-difluoro-5-(2-thienyl)-1,3-dimethyl-4-bora-3a,4a-diaza-s-indacene-2-propionic acid [Compound 8] | 219 a.u. | 12.6 a.u.
R-phycoerythrin [R-PE] | 618 a.u. | 21.5 a.u.
